test: Micelle/water partition coefficient (Pmic) of the compound was determined; format: physicochemical; settings: buffer

`Cc1cc(=O)n(-c2ccccc2)n1C` [ANTIPYRINE] and `CNC(=O)c1cccnc1` [NICOTINYL METHYLAMIDE] are within 0.2 log units of each other in “Log Pmic” value: 0.58 for the first, 0.39 for the second.

Compared with `CN1CC(=O)NC1=N` [CREATININE], `O=c1[nH]c(=O)n(C2CCCO2)cc1F` (configuration not stated) [TEGAFUR] is higher in “Log Pmic” value: -0.3 for the first, 0.7 for the second.

First: COc1cccc2c1C(=O)c1c(O)c3c(c(O)c1C2=O)C[C@@](O)(C(=O)CO)C[C@@H]3O[C@H]1C[C@H](N)[C@H](O)[C@H](C)O1 [DOXORUBICIN]
Second: CC[C@]1(O)C[C@H]2CN(CCc3c([nH]c4ccccc34)[C@@](C(=O)OC)(c3cc4c(cc3OC)N(C=O)[C@H]3[C@@](O)(C(=O)OC)[C@H](OC(C)=O)[C@]5(CC)C=CCN6CC[C@]43[C@@H]65)C2)C1 [VINCRISTINE]
The “Log Pmic” value of the first is lower: 1.9 for the first, 2.48 for the second.

Going from `O=c1[nH]cc(F)c(=O)[nH]1` [FLUOROURACIL] to `Cc1ncc([N+](=O)[O-])n1CCO` [METRONIDAZOLE], the “Log Pmic” value rises from 0.21 to 0.54.

Compared with `NC=O` [FORMAMIDE], `NC(N)=O` [UREA] is higher in “Log Pmic” value: -0.35 for the first, -0.12 for the second.

Going from `CCc1nc(N)nc(N)c1-c1ccc(Cl)cc1` [PYRIMETHAMINE] to `NC(N)=S` [THIOUREA], the “Log Pmic” value falls from 2.51 to 0.48.

Reference: ChEMBL document CHEMBL1129683, “Thermodynamic aspects of hydrophobicity and the blood-brain barrier permeability studied with a gel filtration chromatography” (J Med Chem, 1996)
